The source of these data is patent publication US7271158B2, “Treatment of rumen acidosis with α-amylase inhibitors” (Pfizer Inc., priority 2000, dated 2007).

Some results are limits rather than exact numbers.

The test system of experiment [1] is rumen fluid fermentation (RUSITEC chronic acidosis model). In words: RUSITEC rumen simulation, chronic acidosis model: acarbose. Format: cell-based, Guernsey cow. As to conditions: for increase in butyrate production: between control and treatment periods (0 mg/vessel/d: 24%); for change in VFA production: treatment period vs preceding control period (0 mg/vessel/d: −3%). The text has this:
Evaluation of Agents Using the Rumen Simulation Technique ([…]) to Model Chronic Acidosis. The in vitro rumen simulation technique ([…]), first described by Czerkawski and Breckenridge (1977) was used to evaluate the effect of the bacterial α-amylase and/or α-glucosidase inhibitor acarbose on daily pH profiles and VFA production using a commercial cattle concentrate ration (GH313-see later). […] Equipment: The apparatus consisted of two […] units each containing four-fermentation vessels. […] The feed was placed in a nylon bag (14×9 cm, 50 μm), and was gently agitated using a piston mechanism (8 strokes/min). Buffer (McDougall, 1948) was continuously infused at a rate of approximately 750 ml/day by an eight channel peristaltic pump (Watson Marlow). The effluent was collected in 1 liter glass bottles containing 20 ml of oxalic acid solution (12 g/100 ml in deionised water). This was added to inhibit further microbial activity Feed: Each vessel was fed daily with a bag containing 30 g of the commercial pelleted ration GH313 (89% dry matter) and 2.5 g barley straw (90% dry matter) chopped into 1-2 cm lengths. 7 g of corn starch (Sigma Cal. No. S4126) was added to the liquid phase of all fermenter vessels at feeding on the last four days of the experiment to simulate acute acidosis. Rumen fluid donor: Rumen fluid was collected from a five year old dry Guernsey cow. […] Rumen contents were collected via a rumen fistula (Bar Diamond Inc. P.O. Box. 60. Bar Diamond Lane. Parma. Id. 83660-0060. U.S.A) Vessel inoculation: Rumen contents were taken from the fistulated donor animal at 08:00 h (before the morning feed). The material was carried to the laboratory in pre-warmed insulated flasks, and then strained through four layers of cotton gauze into another pre-warmed insulated flask. 70 g of the solid residue were weighed into each of eight nylon bags. One bag containing rumen solids, and one bag containing fresh feed was placed in the feed chamber for each vessel. The liquid contents of each vessel were 100 ml deionised water, 200 ml of buffer artificial and 500 ml of rumen fluid. After assembling and sealing the vessels, they were placed in the water baths and the piston rod attached to the drive bar. The effluent tubes were placed in the collection flasks. The head space in each vessel was flushed with CO2 for 2 min., then the piston drive motor and buffer infusion pump were started. Daily maintenance and sampling procedure: These procedures were carried out at the same time each day. Eight feed bags were prepared, and a 1 l dispenser bottle containing infusion buffer warmed to 39° C. Treatment with acarbose: Acarbose was obtained as GlucobayTM tablets (Bayer, AAH Pharmaceuticals) Each tablet contains 100 mg acarbose. Duplicate vessels were treated with 0, 1, 10 and 100 mg/d of acarbose by adding 1 tablet to each of two feed bags to give 100 mg/vessel/d. The lower doses were prepared by dissolving/suspending a tablet in 10 ml buffer (giving a 10 mg/ml solution of acarbose). One ml of this solution was then added to 9 ml of buffer, giving a 1 mg/ml solution. One ml of each solution was then added to the contents of two feed bags, to give 10 and 1 mg/vessel/d. Finally, the acarbose was dried on to the feed by leaving the bags at room temperature overnight. Analyses: Dry matter losses from the nylon bags after 48 hours incubation were measured by drying the washed bag contents in an oven for 23 h at 65° C. Effluent samples (10 ml) were taken daily and stored at -20° C. for subsequent VFA and lactate analysis .pH was automatically recorded at 17 min. intervals using equipment supplied by Philip Harris Education. A combination electrode was fitted in each vessel via a gas-tight port in the lid. […] The recorded pH values were downloaded to a PC running […] 32 software (Philip Harris Education) and then transferred to a spreadsheet for further analysis. […]

Experiment [2] shares this test system. In words: RUSITEC rumen simulation, chronic acidosis model: Example 8 and acarbose. Type of experiment: cell-based, cow. The procedure: RUSITEC Result using Example 8 and Acarbose
Daily maintenance procedures as previously described for Acarbose.
Rumen fluid donor cow—Fed GH313Pellets plus barley straw.
Daily Feed—30 g GH313 pellets plus 2.5 g chopped barley straw.
Acarbose: 1 tablet added to each bag to give 100 mg/vessel/d
Example 8: Eight×57 mg pre-weighed samples stored in fridge in […]. On the day before the feed bags were to be placed in RUSITEC, a 57 mg sample was dissolved in 2.28 ml buffer (25 mg/ml). 0.21 ml of this solution was added to 1.9 ml buffer to give a 2.5 mg/ml solution. 1 ml of each solution was added to a prepared feed bag to give 25 and 2.5 mg/vessel/d. and dried overnight at room temperature.

In a further experiment the test system is E. coli. The experiment can be described thus: Minimum inhibitory concentrations in aerobes (agar dilution). Format: cell-based. The conditions noted are these: Escherichia coli.
For a further experiment, the system named is E. faecium. The description is as above.

`CC1OC(OC2C(CO)OC(OC3C(CO)OC(O)C(O)C3O)C(O)C2O)C(O)C(O)C1NC1C=C(CO)C(O)C(O)C1O` (stereo not drawn) [Acarbose, acarbose]: the “increase in butyrate production” value is 27% in experiment [1] (1 mg/vessel/d), 76% in experiment [1] (10 mg/vessel/d) and 134% in experiment [1] (100 mg/vessel/d). The figures for the “change in VFA production” value in experiment [1] (1 mg/vessel/d), in experiment [1] (10 mg/vessel/d) and in experiment [1] (100 mg/vessel/d) were “+3%”, −10% and −16%, respectively. The “increase in mean daily pH” value in experiment [2] (0.2 mM) was 0.7 units. In experiment [2] (100 mg per vessel per day, treatment period vs control period (no treatment: 1%)), the “proportional increase in butyrate production” value is reported as 113%. Further, the “change in total VFA production” value in experiment [2] (100 mg per vessel per day, vs preceding control period (no treatment: −11%)) is reported as −15%. Also, the minimal inhibitory concentration (MIC) with E. coli (ATCC10418, E. coli ATCC 10418) is above 128 µg/mL; in the experiment on E. coli (E. coli E517), above 128 µg/mL; in the experiment on E. faecium (E. faecium 1.1.6) it was above 128 µg/mL; with E. faecium (E. faecium 1.2.4) it was above 128 µg/mL; against E. faecium (E. faecium 1.2.6), above 128 µg/mL; in the experiment with E. faecium (E. faecium 3.1), above 128 µg/mL. For the same compound, the MIC in the experiment with E. faecium (E. faecium 4.5), in the experiment on E. faecium (E. faecium 5.4), in the experiment on E. faecium (E. faecium 10.1), against E. faecium (E. faecium 28.6.7), against E. faecium (E. faecium 28.7.7) and against E. faecium (Enterococcus faecium) was above 128 µg/mL throughout.

Usually MIC stands for the least concentration at which growth counts as inhibited. Low values mean greater potency, high ones weaker potency.
